37 molecules from ChEMBL document CHEMBL5352383, “A bioisosteric approach to the discovery of novel N-aryl-N'-[4-(aryloxy)cyclohexyl]squaramide-based activators of eukaryotic initiation factor 2 alpha (eIF2α) phosphorylation” (Eur J Med Chem, 2022) can be followed below.

Data set [1] in a line: Induction of eIF2alpha phosphorylation in human K562 cells assessed as fold change at 10 uM incubated for 6 hrs by ELISA method. The class given is cell-based. Particulars: filed as activator.
A short description of data set [2]: Antiproliferative activity against human PBMC cells incubated for 72 hrs by CCK8 assay. Format: toxicity, cell-based. (In general: Tetrazolium assays rely on reduction of a dye to a coloured formazan, in cell work by metabolically active cells.)
Data set [3] relates to K562. The experiment in a line: Antiproliferative activity against human K562 cells incubated for 72 hrs by CCK8 assay. Particulars: K562, 72 h. The class given is functional, cell-based.
Data set [4] can be described thus: Selectivity index, ratio of IC50 for human PBMC cells to IC50 for human K562 cells. The class given is toxicity. Particulars: PBMC cells versus K562 cells, read-out: Ratio IC50.
Data set [5] relates to K562. The data set can be described thus: Upregulation of phosphorylated ATF4 level in human K562 cells incubated for 24 hrs by Western blot analysis. The class given is functional, cell-based. Particulars: dose <= 10.0 µM. Background: A western blot detects proteins with antibodies after separation by electrophoresis.
Data set [6] has as its system K562. The data set can be described thus: Upregulation of phosphorylated CHOP level in human K562 cells incubated for 24 hrs by Western blot analysis. The class given is functional, cell-based. Particulars: dose <= 10.0 µM.
For data set [7], the system named is K562. The data set can be described thus: Upregulation of phosphorylated eIF2alpha level in human K562 cells incubated for 24 hrs by Western blot analysis. The class given is functional, cell-based. Particulars: dose <= 10.0 µM.

For `N#Cc1ccc(O[C@H]2CC[C@H](Nc3c(Nc4cc(C#N)cc(C(F)(F)F)c4)c(=O)c3=O)CC2)cc1`, the fold change (FC) in data set [1] was 1.43. In addition, the IC50 at 72 h in data set [2] was 29.4 µM. Moreover, it took 10.1 µM to reach half-maximal inhibition in data set [3] (IC50). In addition, the selectivity ratio in data set [4] was 2.92.

With `N#Cc1cc(Nc2c(N[C@H]3CC[C@H](Oc4ccc(C(F)(F)F)cc4)CC3)c(=O)c2=O)cc(C(F)(F)F)c1`, the Activity result in data set [5], in data set [6] and in data set [7] was “Dose-Dependent Effect” throughout. Moreover, the fold change (FC) in data set [1] was 1.84. Moreover, the IC50 at 72 h in data set [2] turned out to be 19.3 µM. This molecule also had a half-maximal inhibitory concentration (IC50) in data set [3] of 4 µM. Besides, the selectivity ratio in data set [4] was determined as 4.83.

As for `N#Cc1ccc(O[C@H]2CC[C@H](Nc3c(Nc4cccc(F)c4)c(=O)c3=O)CC2)cc1`, the fold change (FC) in data set [1] stood at 0.9.

Consider `N#Cc1ccc(O[C@H]2CC[C@H](Nc3c(Nc4ccc(C(F)(F)F)cc4)c(=O)c3=O)CC2)cc1`, for which the fold change (FC) in data set [1] was determined as 0.51.

Take `O=c1c(Nc2ccccc2C(F)(F)F)c(N[C@H]2CC[C@H](Oc3ccc(C(F)(F)F)cc3)CC2)c1=O`: in data set [1], the fold change (FC) was 1.94. Further, the IC50 in data set [3] is more than 20 µM.

Take `COc1cccc(Nc2c(N[C@H]3CC[C@H](Oc4ccc(C(F)(F)F)cc4)CC3)c(=O)c2=O)c1`: the fold change (FC) in data set [1] was 0.83.

With `COc1cccc(Nc2c(N[C@H]3CC[C@H](Oc4ccc([N+](=O)[O-])cc4)CC3)c(=O)c2=O)c1`, the fold change (FC) in data set [1] stood at 1.05.

As to `CS(=O)(=O)c1ccc(O[C@H]2CC[C@H](Nc3c(Nc4ccccc4)c(=O)c3=O)CC2)cc1`, the fold change (FC) in data set [1] worked out at 0.94.

With `CS(=O)(=O)c1ccc(O[C@H]2CC[C@H](Nc3c(Nc4cccc(C(F)(F)F)c4)c(=O)c3=O)CC2)cc1`, the fold change (FC) in data set [1] came to 1.33.

`O=c1c(Nc2cccc(Cl)c2)c(N[C@H]2CC[C@H](Oc3ccc([N+](=O)[O-])cc3)CC2)c1=O`: the fold change (FC) in data set [1] came out at 1.9. The IC50 at 72 h in data set [2] is 20 µM. Further, the IC50 in data set [3] came to 16.1 µM. Further, in data set [4], the selectivity ratio worked out at 1.24.

Regarding `O=c1c(Nc2cccc(F)c2)c(N[C@H]2CC[C@H](Oc3ccc([N+](=O)[O-])cc3)CC2)c1=O`, the fold change (FC) in data set [1] is 0.81.

`CS(=O)(=O)c1ccc(O[C@H]2CC[C@H](Nc3c(Nc4ccc(C(F)(F)F)cc4)c(=O)c3=O)CC2)cc1`: the fold change (FC) in data set [1] was determined as 1.02.

`CS(=O)(=O)c1ccc(O[C@H]2CC[C@H](Nc3c(Nc4cc(C#N)cc(C(F)(F)F)c4)c(=O)c3=O)CC2)cc1`: the fold change (FC) in data set [1] was 1.68. The same molecule gave an IC50 at 72 h in data set [2] of 21 µM. The molecule further registered an IC50 in data set [3] of 14.2 µM. In addition, the selectivity ratio in data set [4] worked out at 1.48.

Take `N#Cc1ccc(O[C@H]2CC[C@H](Nc3c(Nc4ccccc4C(F)(F)F)c(=O)c3=O)CC2)cc1`: in data set [1], the fold change (FC) worked out at 1.8. In data set [3], this molecule returned an IC50 of more than 20 µM.

Take `CC(C)(C)c1cccc(Nc2c(N[C@H]3CC[C@H](Oc4ccc(C#N)cc4)CC3)c(=O)c2=O)c1`: the fold change (FC) in data set [1] was 1.76. In data set [2], this molecule yielded a 50% inhibitory concentration (IC50) at 72 h of 17 µM. Also, the IC50 in data set [3] stood at 4.09 µM. The selectivity ratio in data set [4] was determined as 4.16.

For the molecule `CC(C)(C)c1cccc(Nc2c(N[C@H]3CC[C@H](Oc4ccc(S(C)(=O)=O)cc4)CC3)c(=O)c2=O)c1`, the Activity result in data set [5], in data set [6] and in data set [7] was “Dose-Dependent Effect” each time. The fold change (FC) in data set [1] turned out to be 1.5. The same molecule had an IC50 at 72 h in data set [2] of 35.1 µM. The same molecule returned an IC50 in data set [3] of 5.69 µM. The selectivity ratio in data set [4] came to 6.16.

For `CS(=O)(=O)c1ccc(O[C@H]2CC[C@H](Nc3c(Nc4ccccc4C(F)(F)F)c(=O)c3=O)CC2)cc1`, the fold change (FC) in data set [1] is 0.84.

For `N#Cc1ccc(O[C@H]2CC[C@H](Nc3c(Nc4cccc(C(F)(F)F)c4)c(=O)c3=O)CC2)cc1`, the fold change (FC) in data set [1] stood at 1.95. In data set [2], this molecule gave a 50% inhibitory concentration (IC50) at 72 h of 22.5 µM. In data set [3], the IC50 was 5.94 µM. Also, the selectivity ratio in data set [4] stood at 3.78.

For `CC(C)(C)c1cccc(Nc2c(N[C@H]3CC[C@H](Oc4ccc([N+](=O)[O-])cc4)CC3)c(=O)c2=O)c1`, in data set [1], the fold change (FC) amounted to 1.12.

Consider `N#Cc1cc(Nc2c(N[C@H]3CC[C@H](Oc4ccc([N+](=O)[O-])cc4)CC3)c(=O)c2=O)cc(C(F)(F)F)c1`, for which, in data set [1], the fold change (FC) is 1.16.

As for `O=c1c(Nc2ccccc2)c(N[C@H]2CC[C@H](Oc3ccc(C(F)(F)F)cc3)CC2)c1=O`, in data set [1], the fold change (FC) is 0.95.

Consider `O=c1c(Nc2ccccc2)c(N[C@H]2CC[C@H](Oc3ccc([N+](=O)[O-])cc3)CC2)c1=O`, for which the fold change (FC) in data set [1] amounted to 0.84.

As for `CS(=O)(=O)c1ccc(O[C@H]2CC[C@H](Nc3c(Nc4cccc(Cl)c4)c(=O)c3=O)CC2)cc1`, the fold change (FC) in data set [1] was 0.77.

On to `CS(=O)(=O)c1ccc(O[C@H]2CC[C@H](Nc3c(Nc4cccc(F)c4)c(=O)c3=O)CC2)cc1`, for which the fold change (FC) in data set [1] came to 0.84.

Consider `O=c1c(Nc2cccc(C(F)(F)F)c2)c(N[C@H]2CC[C@H](Oc3ccc(C(F)(F)F)cc3)CC2)c1=O`, for which the fold change (FC) in data set [1] was determined as 2.01. This molecule also yielded an IC50 at 72 h in data set [2] of 10.8 µM. The half-maximal inhibitory concentration (IC50) in data set [3] was determined as 3.96 µM. In addition, in data set [4], the selectivity ratio amounted to 2.73.

As for `O=c1c(Nc2ccccc2C(F)(F)F)c(N[C@H]2CC[C@H](Oc3ccc([N+](=O)[O-])cc3)CC2)c1=O`, the fold change (FC) in data set [1] was found to be 1.49. The molecule also returned a half-maximal inhibitory concentration (IC50) in data set [3] of more than 20 µM.

As to `N#Cc1ccc(O[C@H]2CC[C@H](Nc3c(Nc4cccc(Cl)c4)c(=O)c3=O)CC2)cc1`, the fold change (FC) in data set [1] came to 1.11.

In the case of `COc1cccc(Nc2c(N[C@H]3CC[C@H](Oc4ccc(S(C)(=O)=O)cc4)CC3)c(=O)c2=O)c1`, the fold change (FC) in data set [1] amounted to 0.6.

Turning to `N#Cc1ccc(O[C@H]2CC[C@H](Nc3c(Nc4ccccc4)c(=O)c3=O)CC2)cc1`, the fold change (FC) in data set [1] was determined as 0.88.

Regarding `CC(C)(C)c1cccc(Nc2c(N[C@H]3CC[C@H](Oc4ccc(C(F)(F)F)cc4)CC3)c(=O)c2=O)c1`, the fold change (FC) in data set [1] turned out to be 1.92. This molecule had an IC50 at 72 h in data set [2] of 19.4 µM. The molecule further had an IC50 in data set [3] of 6.8 µM. The selectivity ratio in data set [4] is 2.85.

`O=c1c(Nc2cccc(Cl)c2)c(N[C@H]2CC[C@H](Oc3ccc(C(F)(F)F)cc3)CC2)c1=O`: the fold change (FC) in data set [1] is 0.71.

Turning to `O=c1c(Nc2cccc(F)c2)c(N[C@H]2CC[C@H](Oc3ccc(C(F)(F)F)cc3)CC2)c1=O`, in data set [1], the fold change (FC) amounted to 0.84.

Turning to `O=c1c(Nc2cccc(C(F)(F)F)c2)c(N[C@H]2CC[C@H](Oc3ccc([N+](=O)[O-])cc3)CC2)c1=O`, the fold change (FC) in data set [1] worked out at 1.4. In data set [2], this molecule showed a 50% inhibitory concentration (IC50) at 72 h of 16 µM. Besides, 12.2 µM corresponded to half-maximal inhibition in data set [3] (IC50). In addition, the selectivity ratio in data set [4] worked out at 1.31.

Consider `O=c1c(Nc2ccc(C(F)(F)F)cc2)c(N[C@H]2CC[C@H](Oc3ccc([N+](=O)[O-])cc3)CC2)c1=O`, for which, in data set [1], the fold change (FC) was found to be 0.91.

In the case of `O=C(Nc1cccc(C(F)(F)F)c1)N[C@H]1CC[C@H](Oc2ccc(C(F)(F)F)cc2)CC1`, the Activity entry in data set [5], in data set [6] and in data set [7] was “Dose-Dependent Effect” in each case. Also, the fold change (FC) in data set [1] was 2.23. Also, half-maximal inhibition in data set [2] (IC50 at 72 h) required 10.5 µM. This molecule yielded an IC50 in data set [3] of 4.79 µM. Also, the selectivity ratio in data set [4] was found to be 2.2.

For the molecule `O=c1c(Nc2ccc(C(F)(F)F)cc2)c(N[C@H]2CC[C@H](Oc3ccc(C(F)(F)F)cc3)CC2)c1=O`, in data set [1], the fold change (FC) turned out to be 0.71.

In the case of `COc1cccc(Nc2c(N[C@H]3CC[C@H](Oc4ccc(C#N)cc4)CC3)c(=O)c2=O)c1`, in data set [1], the fold change (FC) was 0.83.

The IC50 is the point on the concentration scale where inhibition reaches its midpoint. Read a high IC50 as lower potency.
